# Measurements as given in PubChem BioAssay AID179 (DTP/NCI, 2004).
# The source made the active and inactive calls.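 How the source made its calls: active means compounds giving half or more protection of infected cells from virus-caused growth loss, again on retest; inactive means the rest.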 Where a SMILES comes first, the peptide text is derived from it. [ ]: non-standard residue; d: D form. The star is where a group is joined. Phe(4-NO2) = N[CH](Cc1ccc([N+](=O)[O-])cc1)C(=O)O; Boc = CC(C)(C)OC(=O)*
# Tested on: CEM cells HIV-1 protection, formazan growth assay
# Assay: NCI AIDS Antiviral Assay
# Conditions: for IC50: measured here: growth of uninfected CEM cells
# Procedure, shortened: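 Human CEM cells, uninfected and HIV-1-infected, received five drug concentrations, and growth was read by soluble formazan assay. Compounds giving at least 50% protection were retested; reproducible 100% protection defined confirmed active.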
SMILES,EC50 [µM],IC50 [µM],outcome
Nc1ncnc2c1[nH]c(=O)n2-c1ccccc1,> 200,178,
O=C1C(=O)c2ccccc2C(O)=C1CCCCCCCCC1CCCCC1,> 200,12,
COc1ccc2c(c1)c1c(n2CCN(C)C)-c2ccccc2CC1,> 200,14.8,
NC(=O)C(=CNC(=S)Nc1ccc(S(=O)(=O)Nc2ccccn2)cc1)C(N)=O,> 200,> 200,
O=C1C=C(NC(=O)C2CCCCC2)c2ncccc2C1=O,,,inactive
COC(=O)c1ccccc1C1CN=NC12Cc1cccc(C)c1C2=O (centres undefined),> 200,57.5,
COc1ccc(C2=NN(C(=O)COc3ccc(Cl)cc3)C(O)(c3ccc(Cl)cc3)C2)cc1 (centres undefined),> 11,> 11,
Cn1c(=O)oc2cc(C(=O)CN3CCN(Cc4ccc5c(c4)OCO5)CC3)c(Cl)cc21,> 200,178,
CCN(CC)c1c(-c2c(N(CC)CC)c(OC(C)=O)c3sccn3c2=O)c(=O)n2ccsc2c1OC(C)=O,> 200,> 200,
CO/C(N)=C(\C#N)N=Cc1cccnc1,> 200,> 200,
C[C@@H]1C(O)CC[C@H](C)C12CC=CC2=O (some centres undefined),> 200,> 200,
CC1(C)OC(=O)[C@@](C)([C@H](O)c2ccccc2)O1,,,inactive
COC(=O)[C@@H](NC(=O)N(Cc1ccccc1)C[C@H](CC(C)C)NC(=O)[C@@H](NC(=O)OC(C)(C)C)C(C)C)C(C)C,> 200,> 100,
CCNC(=S)NNC(=O)c1csc(NC(=S)NC2CCCCC2)n1,> 200,6.61,
O=C1NC(=O)C(=Cc2ccccc2[N+](=O)[O-])C(=O)N1,,,inactive
O=Nc1ccc(O)cc1,> 20,3.89,
CCOC(=O)/C(C#N)=C/c1ccccc1Cl,,,inactive
c1ccc(CN(Cn2cccn2)Cn2cccn2)nc1,,,inactive
O=C1CC(=O)NC(=NN2C(=O)CSC2C(=O)c2ccco2)N1 (centres undefined),35.5,575,
CN(C)c1ccc2c(c1)C(=O)N(OS(=O)(=O)c1ccc([N+](=O)[O-])cc1)C2=O,> 47.9,20.4,
CCOC(=O)C1([N+](=O)[O-])[C@@H]2CCCC[C@@H]21 (some centres undefined),> 316,> 316,

SMILES,EC50 [µM],IC50 [µM],outcome
CC1=NCCc2c1[nH]c1cc(O)ccc21,> 398,> 100,
O=C(O)CSc1ccc2c3c(cccc13)C(=O)c1ccccc1-2,> 200,3.09,
O=C(/C=C/c1ccc(O)cc1)OCC1OC(Oc2cc(O)c3c(c2)OC(c2ccc(O)cc2)CC3=O)C(O)C(O)C1O (centres undefined),> 51.3,27.5,
CCOC(=O)/C(C#N)=C/c1ccc(N(C)C)cc1,> 77.6,> 77.6,
CCOCCN(CCOCC)C(=O)c1ccc2c(c1)no[n+]2[O-],> 200,135,
CCOC(=O)C1C=CC(C)C2CCCCC12N1CCCC1 (centres undefined),,,inactive
COc1cc(/C=C2/SC(c3ccccc3)N(c3ccccc3Cl)C2=O)cc(OC)c1OC (centres undefined),> 200,43.7,
O=C1OC2CS(=O)CC2O1 (centres undefined),> 1550,> 1550,
NCCCNCCNCCCN,> 200,> 200,
Cc1ccc2c(c1)C1(SC(C)C(=O)N1c1ccc(Br)cc1)C(=O)N2 (centres undefined),> 200,6.31,
COc1cc(COC(=O)N2CSCC2C(=O)O)c([N+](=O)[O-])cc1OC (centres undefined),> 676,> 676,
O=Nc1cc(S(=O)(=O)O)c2ccccc2c1O,> 200,> 200,
Cn1c(=O)nc2n(-c3ccc(Cl)cc3)c3cc(Cl)ccc3nc-2c1=O,,,inactive
C=CCN=C1NC(=O)C(CC(=O)Nc2ccc([N+](=O)[O-])cc2[N+](=O)[O-])S1 (centres undefined),> 13.8,> 13.8,
O=C1c2cc(Br)ccc2OC2CCON12 (centres undefined),,,inactive
CC(C)CCCC(C)[C@H]1CC[C@H]2[C@@H]3CC[C@H]4C[C@@H](CCC=C(c5cc(Cl)c(OC(=O)C(C)(C)C)c(C(=O)O)c5)c5cc(Cl)c(OC(=O)C(C)(C)C)c(C(=O)O)c5)CC[C@]4(C)[C@H]3CC[C@]12C (some centres undefined),75.9,> 100,
S=c1[nH]ccs1,> 200,> 200,
CC1=CC2OC3CC4OC(=O)/C=C/C=C/C(=O)OCCC(C)C(O)C(=O)OCC2(CC1O)C4(C)C31CO1 (centres undefined),> 0.2,0.00347,
S=C1NCCO1,> 200,105,
O=C(/C=C/c1ccccc1)c1ccc(Cl)cc1Cl,> 2.69,> 2.69,
Cc1cccc(C(C)O)n1 (centres undefined),> 200,> 200,

SMILES,EC50 [µM],IC50 [µM],outcome
Cc1cccc2c1C(=O)[C@](C)([C@]1(C)Nc3cccc(C)c3C1=O)N2,> 200,17.4,
O=c1/c(=C/c2cccc([N+](=O)[O-])c2)sc2nc3ccccc3n12,,,inactive
Cc1cc(=O)oc2c(CNC(C(=O)O)C(C)O)c(O)ccc12 (centres undefined),> 200,> 200,
c1ccc(-c2c(-c3cccs3)[nH]c(-c3cccs3)c2-c2ccccn2)nc1,> 38,25.7,
O=Nc1c(O)[nH]c(=S)[nH]c1=O,> 148,115,
Cc1ccc(NCC(=O)N2CC(=O)Nc3ccccc32)c(C)c1,> 17,> 17,
O=C1CCC[C@]2(CCC[C@@H](O)C2)N1,> 200,> 200,
Nc1ccn(C2CCC(CO)O2)c(=S)n1 (centres undefined),> 200,> 200,
Cc1ccc2c(c1)C(=O)C(Cc1ccccc1C(=O)O)C2 (centres undefined),> 200,178,
CC12CCC(OC3OC(CO)C(OC4OC(CO)C(O)C(O)C4O)C(O)C3O)CC1CCC1C2CCC2(C)C(C3=CC(=O)OC3)CCC12O (centres undefined),> 20,0.309,
CCOC(=O)CCC(NC(=O)C(Cc1ccc([N+](=O)[O-])cc1)NC(=O)OC(C)(C)C)C(=O)NC(CCC(=O)OCC)C(=O)OCC (centres undefined) (Boc-[Phe(4-NO2)]-Glu(OEt)-Glu(OEt)-OEt; configuration not given here),> 200,9.77,
CN(C)c1nc(N(C)C)sc(=O)n1,,,inactive
COC(=O)CC1N=C(NC#N)N(CCc2c[nH]c3ccccc23)C1=O (centres undefined),,,inactive
Cc1cc(=O)n(/C=C/C(=O)O)c2ccccc12,> 200,> 200,
O=[N+]([O-])c1ccc(-c2noc(-c3ccc(Cl)cc3)c2C2=NCCCN2)cc1,> 35.5,> 35.5,
CCCc1cc(=O)oc2c3c(cc(OC(C)C)c12)O[C@H](C)[C@H](C)C3=O,> 200,30.2,
CN1CCN(C(=S)N(C(=O)c2ccc(Cl)cc2)C2CCCCC2)CC1,> 95.5,45.7,
Clc1ccc(-n2cnn3c(-c4ccccc4)ncc23)cc1,> 100,> 100,
Nc1c(Br)cc2snc3c2c1C(=O)c1ccccc1-3,> 15.8,8.51,
CNC(=S)NNc1ncnc2c1c(-c1ccc(Cl)cc1)cn2-c1ccc(C)cc1,,,inactive
O=C(CCCCCCCCC(=O)N1C(=O)CC(=O)N(c2ccccc2)C1=S)N1C(=O)CC(=O)N(c2ccccc2)C1=S,> 200,123,
